# Source: PubChem BioAssay (NCI)
#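 Grown in 96-well plates, cells were treated for 48 hours with each compound at five concentrations. Insufficient inhibition: endpoint recorded as highest concentration tested. TGI: total growth inhibition.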
# Tests used:
# Assay in all cases: inhibition of tumour cell growth, NCI panel, 48 h
# [1] = tested on: RPMI-8226 leukemia
# [2] = tested on: HOP-62 NSCLC
# [3] = tested on: OVCAR-8 ovarian
# [4] = tested on: UO-31 renal
# [5] = tested on: CCRF-CEM leukemia
# [6] = tested on: A549 NSCLC
# [7] = tested on: SNB-75 CNS
# [8] = tested on: SK-MEL-5 melanoma
# [9] = tested on: NCI-H226 lung
# [10] = tested on: 786-0 renal
# [11] = tested on: NCI-H23 lung
# [12] = tested on: RXF 393 renal
# [13] = tested on: SF-295 CNS
# [14] = tested on: PC-3 prostate
# [15] = tested on: HS 578T breast
Structure (SMILES),TGI [1] [µM],TGI [2] [µM],TGI [3] [µM],TGI [4] [µM],TGI [5] [µM],TGI [6] [µM],TGI [7] [µM],TGI [8] [µM],TGI [9] [µM],TGI [10] [µM],TGI [11] [µM],TGI [12] [µM],TGI [13] [µM],TGI [14] [µM],TGI [15] [µM]
CCOc1ccc(N2C(=O)NC3(c4ccccc4)N(C)C(=O)N(C)C23c2ccccc2)cc1 (configuration not stated),> 100,> 100,> 100,> 100,> 100,> 100,63.5,> 100,> 100,> 100,> 100,> 100,> 100,> 100,
OCC1C2CCC3(OCCO3)C12 (configuration not stated),> 100,> 100,> 100,29.6,> 100,> 100,> 100,> 100,> 100,> 100,33.7,> 100,> 100,> 100,
C=C1C2C[C@@H]3O[C@H]4C[C@H]5O[C@@]6(C[C@@H]7O[C@]8(C[C@H](C)[C@@H]9O[C@@H]%10CC(C=O)O[C@@H]%10C[C@@H]9O8)C[C@H](C)[C@@H]7O6)C[C@H]5O[C@H]4[C@H](C)[C@H]3OC(=O)C[C@H]3CC[C@@H]4OC5[C@H]6O[C@]7(CC[C@H]8CC(=C)[C@H](CC[C@@H](C[C@H]1C)O2)O8)CC6O[C@@H]5[C@@H](O7)[C@H]4O3 (some centres not stated),0.000326,> 1,,> 1,,> 1,> 1,> 1,0.0119,0.971,0.00195,,> 1,> 1,< 0.0001
COc1ccc(Cc2cc(OC)c(OC)c(OC)c2)cc1,39.1,> 100,27,90.5,16.9,> 100,> 18.5,21.2,12,> 100,15.3,3.38,> 29.4,> 100,
O=C1C[C@@H]2[C@@H](CCC23CCCC3)N1,> 100,> 100,> 100,> 100,> 100,> 100,> 100,> 100,> 100,> 100,> 100,> 100,> 100,,
Cc1ccc(NC(=O)CC(=O)N2N=C(N3CCCCC3)CC2c2ccccc2)cc1 (configuration not stated),,> 100,> 100,> 100,> 100,> 100,> 100,> 100,> 100,> 100,> 100,> 100,> 100,> 100,> 100
CSCCC(NC(=O)Cc1ccc(C(=O)c2ccccc2)cc1)C(=O)N1CCN(CCCCN2c3ccccc3Sc3cc(N=[N+]=[N-])ccc32)CC1 (configuration not stated),> 100,> 100,,> 100,> 100,,,> 100,> 100,> 100,> 100,> 100,> 100,> 100,
COc1ccc(C[n+]2cccc(O)c2)cc1,,> 100,> 100,> 100,> 100,> 100,,> 100,> 100,> 100,> 100,> 100,> 100,> 100,> 100
COC(O)C(=O)c1c2c(cc3c1CCC3)CCC2 (configuration not stated),> 100,> 100,> 100,> 100,> 100,> 100,> 100,> 100,> 100,> 100,> 100,,> 100,> 100,> 100
CC(=O)NNc1nc(C)c(C(/C=C/c2ccc(Cl)cc2)=N\N=C(N)N)s1,> 100,> 100,> 100,> 100,> 100,> 100,> 100,> 100,> 100,> 100,> 100,> 100,> 100,,
Cc1cc(O)c2c(c1)C(C1OC(CO)C(O)C(O)C1O)c1cc(O)cc(O)c1C2=O (configuration not stated),> 100,> 100,> 100,> 100,> 100,> 100,> 100,> 100,> 100,> 100,> 100,,> 100,> 100,
C=CCOC1CC(n2cnc3c(N)ncnc32)OC1CO (configuration not stated),> 100,> 100,> 100,> 100,> 100,> 100,> 100,> 100,> 100,> 100,> 100,,> 100,,
Fc1ccc(Oc2nc3ccccc3nc2-c2ccccc2)cc1,> 100,> 100,,> 100,> 100,,,> 100,> 100,> 100,> 100,> 100,> 100,> 100,> 100
Cc1ccc(C(=O)C(c2nc3n(c2O)C(=N)N=N3)c2nc3n(c2O)C(=N)N=N3)cc1 (configuration not stated),> 100,,> 100,> 100,> 100,> 100,> 100,> 100,> 100,> 100,> 100,> 100,> 100,,
COc1ccc(C(=O)N2CCN(c3ccc4c(c3)OCC(=O)N4)CC2)cc1OC,> 100,> 100,> 100,> 100,> 100,> 100,> 100,> 100,> 100,> 100,> 100,,> 100,> 100,> 100
O=C(CC(=O)N1N=C(n2ccc3ccccc32)CC1c1ccccc1)Nc1ccc(Cl)cc1 (configuration not stated),> 100,> 100,> 100,> 100,> 100,> 100,> 100,,,> 100,> 100,> 100,> 100,,

Structure (SMILES),TGI [1] [µM],TGI [2] [µM],TGI [3] [µM],TGI [4] [µM],TGI [5] [µM],TGI [6] [µM],TGI [7] [µM],TGI [8] [µM],TGI [9] [µM],TGI [10] [µM],TGI [11] [µM],TGI [12] [µM],TGI [13] [µM],TGI [14] [µM],TGI [15] [µM]
O=C1N=CN=C2C=CC(Cl)=C(I)C12 (configuration not stated),> 100,> 100,> 100,65.7,> 100,> 100,,> 100,,> 100,> 100,70.8,> 100,,
O=C(NC1CCN(Cc2ccccc2)CC1)c1cccc(I)c1,69.2,30.6,> 100,31.6,> 100,> 100,,31.2,78.1,57.8,63.3,> 100,33.8,> 100,83
O=S1(=O)OCCOS(=O)(=O)C1(Cl)Cl,> 100,> 100,> 100,> 100,> 100,> 100,> 100,> 100,> 100,> 100,> 100,,> 100,,
Cc1occc1C(=S)Nc1ccc(Cl)c(C(=O)OCC(C)C)c1,75,,30.7,33.2,> 100,42.4,29.4,29,30.4,33.5,45.3,,33.2,38.7,62.6
N#CC(c1ccccc1)N(CCc1ccccc1)C(=O)c1ccc(C(=O)N(CCc2ccccc2)C(C#N)c2ccccc2)cc1 (configuration not stated),,,34.6,63.8,71.5,> 100,45.8,27.2,33.8,56.5,77.6,61.3,51.9,> 100,39.1
C/C(=N\Nc1nc2ccccc2o1)c1ncccn1,0.0363,2.91,0.404,0.609,0.0584,12.1,,13.9,0.64,12.1,5.87,5.59,6.06,19.9,> 61
Cc1n[nH]c(=O)n1Nc1ccccc1,> 100,> 100,> 100,> 100,> 100,> 100,> 100,> 100,> 100,> 100,> 100,,> 100,> 100,> 100
CC1OC(OC2C(OC(=O)[C@]34CCC(C)(C)CC3C3=CCC5[C@@]6(C)C[C@H](O)[C@H](OC7OC(COC8OC(CO)C(O)C(O)C8O)C(O)C(O)C7O)[C@@](C)(C(=O)O)C6CC[C@@]5(C)C3(C)CC4)OCC(O)C2O)C(O)C(O)C1OC1OCC(O)C(O)C1O (some centres not stated),> 100,> 100,> 100,> 100,> 100,> 100,> 100,> 100,> 100,> 100,> 100,> 100,> 100,,
Cc1ccc(S(=O)(=O)NN=C2C(C)(C)CC2(C)C)cc1,,> 100,> 100,> 100,> 100,> 100,> 100,> 100,> 100,> 100,> 100,> 100,> 100,> 100,> 100
Cc1ccc(NC(=O)CCc2nnc3s/c(=C\c4cccc([N+](=O)[O-])c4)c(=O)n23)cc1,> 100,> 100,> 100,> 100,> 100,> 100,> 100,> 100,> 100,> 100,> 100,> 100,> 100,,
Cc1c2oc3c(C)cnc(C(=O)NC4C(=O)NC(C(C)C)C(=O)N5CCCC5C(=O)N(C)CC(=O)N(C)C(C(C)C)C(=O)OC4C)c3nc-2c(C(=O)NC2C(=O)NC(C(C)C)C(=O)N3CCCC3C(=O)N(C)CC(=O)N(C)C(C(C)C)C(=O)OC2C)c(N)c1=O (configuration not stated),,> 57.7,> 44.5,51,5.44,> 75,21.3,21.6,23.8,> 75,> 54.8,18.8,39.9,> 47.1,19.5
CCCCC(O)(c1ccccc1)C(O)(c1ccccc1)c1c(F)c(F)c(F)c(F)c1F (configuration not stated),45.6,49.5,55.5,88.4,88.7,> 100,> 100,35.5,86,39.4,> 100,,,46.8,
Cc1cc(N(CCC#N)CCC#N)ccc1/C=C1N=C(/C=C/c2ccccc2)N(c2ccc(S(N)(=O)=O)cc2)C\1=O,> 100,> 100,> 100,> 100,> 100,> 100,> 100,> 100,> 100,> 100,> 100,,> 100,,
CN1C(=S)CSc2ccccc21,> 100,> 100,> 100,> 100,> 100,> 100,> 100,> 100,> 100,> 100,> 100,> 100,,,
O=C(CSc1nnc(Cc2ccccc2)o1)Nc1ccc(Cl)cc1[N+](=O)[O-],49.6,31.3,> 100,49.4,54.4,35.6,39.5,30.9,47.6,31,36,33.4,34.2,,
COC(=O)C1CC(c2ccc(Cl)cc2)=NO1 (configuration not stated),> 100,> 100,> 100,> 100,> 100,> 100,> 100,> 100,> 100,> 100,> 100,,> 100,,
